Patent US10399966B2, “Compounds for treatment of trypanosomes and neurological pathogens and uses thereof” (The University of North Carolina at Chapel Hill, priority 2016, dated 2019)
Where two headings read alike, the source gives them in different places.

Assays:
[1] = test system: Trypanosoma cruzi; experiment: Efficacy against T. cruzi in vitro; assay type: cell-based; details: Trypanosoma cruzi, Table 10; for EC50: read-out: T.cruzi EC50; for EC90: read-out: T.cruzi EC90
[2] = Distribution between mouse plasma and brain (brain penetration, ip); assay type: in vivo; details: for Brain/plasma ratio / [compound]Brain / [compound]Plasma: Table 14, mice, single ip dose 5 mg/kg, one hour post-dose; for [compound]Brain / [compound]Plasma: ± SEM of 3 mice (compound 3: 6 mice); for Kp at 1 h / concentration at 1 h: mouse, intraperitoneal, 5 mg/kg; for Kp at 1 h: brain and plasma, read-out: Average brain/plasma ratio
Experimental: For distribution of compounds between mouse plasma and brain, mice (in groups of 3) were injected with test compounds (5 mg/kg ip) and sacrificed at the indicated times for collection of plasma and brain. Compound was dissolved in 0.4 mL of dosing solution (7% Tween 80, 3% ethanol, 5% DMSO, 0.9% saline) for ip injections. The brains were weighed and immediately frozen, then later homogenized in acetonitrile using a Dounce homogenizer. Prior to animal studies, recovery of test compound was carried out by adding a known amount to a mouse brain in the test extraction solvent and performing the homogenization. Compound recovery was determined by liquid chromatography/tandem mass spectrometry analysis relative to a standard compound amount. Blood was taken from the same mice in heparinized capillary tubes (Fisherbrand) for determination of compound concentration in plasma. The concentration of compound in the brain was obtained by dividing the moles of compound in the brain by the brain volume (obtained from the brain weight assuming 1 g is 1 mL) and correcting for the brain vasculature volume of 2.5% by weight.
Brain penetration studies (Table 14) were initially performed upon compounds 1, 2, and 3, but were expanded to include other compounds in order to explore the SAR of brain penetration. Groups of three mice were given single 5 mg/kg ip doses of the test compounds and were sacrificed 1 h post-dose.

[3] = test system: human lymphocytes CRL-8155; experiment: Cytotoxicity against CRL-8155 cells; details: human lymphoblasts; for EC50: read-out: CRL-8155 EC50, concentration required to inhibit growth by 50%; for EC90: read-out: CRL-8155 EC90, concentration required to inhibit growth by 90%
Experimental: The selectivity of each compound for the parasite over each of the two cell lines was calculated.

[4] = test system: human hepatocytes HepG2; experiment: Cytotoxicity against HepG2 cells; details: for EC50: Homo sapiens, HepG2, read-out: HepG2 EC50; for EC90: read-out: HepG2 EC90, concentration required to inhibit growth by 90%, human hepatocytes
[5] = test system: T. b. brucei; experiment: In vitro antitrypanosomal activity against T. brucei (growth inhibition); assay type: cell-based, Trypanosoma brucei; details: Trypanosoma brucei; for EC90: read-out: T. brucei EC90
Experimental: Primary hits from the screen were further characterized using a dose-response assay format to determine the EC50. In parallel, the cytotoxicities of these compounds were determined against a proliferating human hepatoma cell line (Huh7). […] SI—CC50/EC50). The final set of confirmed T. brucei hits consisted of 1035 inhibitors. […] In vitro antitrypanosomal activities against T. b. rhodesiense (STIB9000) and cytotoxicities against L6 rat myoblast cells were measured following established protocols (Orhan et al., Mar. Drugs 8:47 (2010). […] All wells including negative controls contained a final of 0.4% DMSO. After incubation of the plates at 37° C. for 48 h, the parasite density was determined using the CellTiter-Glo reagent (Promega), a firefly luciferase assay system that measures the amount of cellular ATP present in plate wells.

[6] = Metabolic stability in human liver microsomes; assay type: in vitro ADME; details: Table 12; for Human microsomes, percentage of compound remaining: after 60 min (where t1/2 > 60 min); for half-life at 1.5 μM: both sexes, human, liver microsomes, pH 7.4, read-out: Human microsomes t1/2; for half-life at 1.5 μM / Human microsomes t1/2: 37° C., NADPH (1 mM), microsomes 0.5 mg/mL, test compounds 1.5 μM
Experimental: (§1) Metabolic stability was evaluated using liver microsomes derived from mouse and human sources. Microsomal incubations were carried out according to a protocol described previously (Wang et al., Antimicrob. Agents Chemother. 54:2507 (2010)) with modifications. Briefly, substrate stock solutions were prepared in DMSO and DMSO content was kept at 0.5% (v/v) in final incubations. Incubation mixtures ([…]), liver microsomes (0.5 mg/mL) from mouse (pool of 1000, CD-1 male mouse) or human (pool of 50, mixed gender) (XenoTech LLC, Lenexa, Kans.) in a phosphate buffer (100 mM, pH 7.4) containing 3.3 mM MgCl2. After a 5-minute pre-equilibration period at 37° C., reactions (in triplicate) were initiated by adding the NADPH cofactor (1 mM). For NADPH-independent reactions, the cofactor was replaced with water. Aliquots (10 μl) of the reaction mixtures were removed at 0, 15, 30, and 60 minutes and individually mixed with 200 μL of ice-cold acetonitrile containing internal standard. The mixtures were vortex-mixed, and precipitated protein was removed by centrifugation at 2,250×g for 15 min. The supernatant fractions were dried using a 96-well microplate evaporator (Apricot Designs Inc., Covina, Calif.) under N2 at 50° C. and reconstituted with 100 μL 50% methanol containing 0.1% trifluoroacetic acid before UPLC-MS/MS analysis. In vitro half-life (t1/2) was obtained by analyzing the substrate concentration vs. incubation time curve using the one-phase exponential decay model (GraphPad Prism® 5.0, San Diego, Calif.).

[7] = Metabolic stability in mouse liver microsomes; assay type: in vitro ADME; details: Table 12; 37° C., NADPH (1 mM), microsomes 0.5 mg/mL, test compounds 1.5 μM
Experimental: as §1

[8] = brain, Table 7, groups of 3 mice, read-out: Average [compound] brain
[9] = plasma, Table 7, groups of 3 mice, read-out: Average [compound] plasma
[10] = Table 7, read-out: T. brucei EC50
[11] = Table 11, read-out: T. b. brucei EC50
[12] = Table 9, read-out: T. brucei EC50
[13] = brain, Table 8, groups of 3 mice (compound 3: ± SEM of 6 mice), read-out: Average [compound] brain
[14] = plasma, Table 8, groups of 3 mice (compound 3: ± SEM of 6 mice), read-out: Average [compound] plasma
[15] = Table 8, read-out: T. brucei EC50
[16] = Table 12, read-out: T. b. brucei EC50

EC50 [1] [nM] | EC90 [1] [nM] | Brain/plasma ratio [2] | [compound]Brain [2] [µM] | [compound]Plasma [2] [µM] | melting point [°C] | Mouse microsomes t1/2 [7] [min] | Human microsomes t1/2 [6] [min] | Structure (SMILES) | EC50 [3] [nM] | EC90 [3] [nM] | EC50 [4] [nM] | EC90 [4] [nM] | EC50 [5, 11] [nM] | EC50 [5, 12] [nM] | EC90 ([5]; Table 9) [nM] | EC50 [5, 16] [nM] | other results
578 | 665 | 1.76 ± 0.032 | 2.31 ± 0.746 | 1.3 ± 0.406 | 194 to 195 |  |  | O=C(Nc1ccc2sc(-c3cccc(F)c3F)nc2c1)N1CCCC1 [Compound 5, 2-(2,3-Difluorophenyl)-5-(N-pyrrolidylamido)benzothiazole] | > 50000 | > 50000 | > 50000 | > 50000 | 183 | 183 | 394 |  | Kp at 1 h ([2]; Table 7, groups of 3 mice): 1.76 ± 0.055; concentration at 1 h [2, 8]: 2310 ± 1290 nM; concentration at 1 h [2, 9]: 1300 ± 703 nM; EC50 [5, 10]: 183 nM
429 | 912 | 0.510 ± 0.023 | 1.29 ± 0.156 | 2.52 ± 0.185 | 232 to 233 |  |  | O=C(Nc1ccc2sc(-c3ccc(F)c(F)c3)nc2c1)N1CCCCC1 [Compound 12, 2-(3,4-Difluorophenyl)-5-(N-piperidylamido)benzothiazole] | > 50000 | > 50000 | > 50000 | > 50000 | 223 | 223 | 282 |  | Kp at 1 h ([2]; Table 8, groups of 3 mice): 0.51 ± 0.04; concentration at 1 h [2, 13]: 1290 ± 270 nM; concentration at 1 h [2, 14]: 2520 ± 320 nM; EC50 [5, 15]: 223 nM
 |  |  |  |  |  | 50 |  | O=C(Nc1ccc2sc(-c3ccccc3)nc2c1)c1ccccc1 [Compound 17, 5-Benzamido-2-phenylbenzothiazole] |  |  |  |  |  | 2380 | 7740 | 2380 | Human microsomes, percentage of compound remaining [6]: 53%; half-life at 1.5 μM [6]: > 60 min
631 | 697 | 1.01 ± 0.037 | 2.28 ± 0.532 | 2.22 ± 0.461 | 232 to 233 | 12 | 37 | O=C(Nc1ccc2sc(-c3cccc(F)c3)nc2c1)N1CCCC1 [Compound 6, 2-(3-Fluorophenyl)-5-(N-pyrrolidylamido)benzothiazole] | > 50000 | > 50000 | > 50000 | > 50000 | 158 | 158 | 391 | 158 | Kp at 1 h ([2]; Table 7, groups of 3 mice): 1.01 ± 0.064; concentration at 1 h [2, 8]: 2280 ± 920 nM; concentration at 1 h [2, 9]: 2220 ± 798 nM; EC50 [5, 10]: 158 nM
826 | 1070 |  |  |  | 230 to 232 | 17 |  | O=C(Nc1ccc2sc(-c3ccccc3)nc2c1)N1CCCCC1 [Compound 23, 2-Phenyl-5-(N-piperidylamido)benzothiazole] | > 50000 | > 50000 | > 50000 | > 50000 | 366 | 366 | 809 | 366 | Human microsomes, percentage of compound remaining [6]: 62%; half-life at 1.5 μM [6]: > 60 min
564 | 861 | 1.24 ± 0.157 | 4.24 ± 0.698 | 3.403 ± 0.328 | 210 to 211 | 18 | 30 | O=C(Nc1ccc2sc(-c3ccccc3)nc2c1)N1CCCC1 [Compound 7, 2-Phenyl-5-(N-pyrrolidylamido)benzothiazole] | > 50000 | > 50000 | > 50000 | > 50000 | 325 | 325 | 817 | 325 | Kp at 1 h ([2]; Table 7, groups of 3 mice): 1.24 ± 0.272; concentration at 1 h [2, 8]: 4240 ± 1210 nM; concentration at 1 h [2, 9]: 3400 ± 569 nM; EC50 [5, 10]: 325 nM
320 | 503 |  |  |  | 216 to 217 | 11 | 8.9 | O=C(Nc1ccc2sc(-c3cccc(F)c3)nc2c1)N1CCCCC1 [Compound 29, 2-(3-Fluorophenyl)-5-(N-piperidylamido)benzothiazole] | > 50000 | > 50000 | > 50000 | > 50000 | 174 | 174 | 602 | 174 | 
1800 | 1990 | 1.01 ± 0.081 | 2.52 ± 0.248 | 2.51 ± 0.203 | 231.5 to 232 |  |  | O=C(Nc1ccc2sc(-c3ccc(F)c(F)c3)nc2c1)N1CCC(F)CC1 [Compound 13, 2-(3,4-Difluorophenyl)-5-(4-fluoro-N-piperidylamido)benzothiazole] | > 50000 | > 50000 | > 50000 | > 50000 | 341 | 341 | 596 |  | Kp at 1 h ([2]; Table 8, groups of 3 mice): 1.01 ± 0.14; concentration at 1 h [2, 13]: 2530 ± 430 nM; concentration at 1 h [2, 14]: 2510 ± 352 nM; EC50 [5, 15]: 341 nM
 |  |  |  |  | 207 to 209 | 11 |  | O=C(Nc1ccc2oc(-c3ccccc3)nc2c1)N1CCCCC1 [Compound 16, 2-Phenyl-5-N-piperidylamidobenzoxazole] |  |  |  |  |  | 2800 | 9300 | 2800 | Human microsomes, percentage of compound remaining [6]: 77%; half-life at 1.5 μM [6]: > 60 min
1230 | 1990 |  |  |  | 207 to 208 |  |  | O=C(Nc1ccc2sc(-c3ccccc3F)nc2c1)N1CCCC1 [Compound 32, 2-(2-Fluorophenyl)-5-(N-pyrrolidylamido)benzothiazole] | > 50000 | > 50000 | > 50000 | > 50000 | 983 | 983 | 1240 |  | 

Structure (SMILES) | EC50 [1] [nM] | EC90 [1] [nM] | Brain/plasma ratio [2] | [compound]Brain [2] [µM] | [compound]Plasma [2] [µM] | melting point [°C] | Mouse microsomes t1/2 [7] [min] | Human microsomes t1/2 [6] [min] | EC50 [3] [nM] | EC90 [3] [nM] | EC50 [4] [nM] | EC90 [4] [nM] | EC50 [5, 11] [nM] | EC50 [5, 12] [nM] | EC90 ([5]; Table 9) [nM] | EC50 [5, 16] [nM] | other results
O=C(Nc1ccc2oc(-c3ccccc3)nc2c1)c1ccccc1 [Compound 15, 5-Benzamido-2-phenylbenzoxazole] |  |  |  |  |  |  | 17 | 60 |  |  |  |  |  |  |  |  | EC50 ([5]; read-out: T. b. brucei EC50): > 10000 nM; EC50 ([5]; read-out: T. brucei EC50): > 10000 nM; EC90 [5]: > 10000 nM
